What all share (assay type): cell-based
Data set [1] concerns MDA-MB-468 cells. Nature of the data set: Effect of RSSH donors on anticancer activity of DOX, CCK-8. The following applies: 4 h pretreatment, then 24 h co-treatment with DOX 5 μM. As for the experimental part: (§1) We next evaluated the effects of RSSH donors on DOX activity in three representative cancer cell lines: triple-negative breast cancer MDA-MB-468, ER-positive breast cancer MCF-7, and hepatocellular carcinoma HepG2.
(§2) Figure 5. Effect of RSSH donors on anticancer activity of DOX in cancer cells. MDA-MB-468, MCF-7, and HepG2 cells were pretreated with APT-1 or its mitochondria-targeted analog APT-1-TPP for 4 h, followed by co-treatment with DOX (5 μM for MDA-MB-468 and HepG2; 15 μM for MCF-7) for an additional 24 h. Results are presented as mean ± SEM, n = 3; *p < 0.05, **p < 0.01, ***p < 0.001, ****p < 0.0001. Ctl = vehicle-treated group (0.01% DMSO in medium). […]
(§3) Cytoprotective Effects of RSSH Donors against Doxorubicin Toxicity
(§4) Cytoprotective studies were performed as previously described.[8] Briefly, H9c2 cells, HepG2 cells, MDA-MB-468 cells, and MCF-7 cells were seeded at a density of 7 x 10^3 cells/well. […] Additionally, in the vehicle control group, cells were treated with medium (DMEM with 10% FBS) containing 0.01% DMSO only. The cells were then further incubated for an additional 4 h before being treated with DOX (10 μL/well, with final concentration of 5 μM). After a 24 h co-incubation with DOX, each well was carefully washed three times with PBS (pH 7.4) and 100 μL o f F B S-free medium containing 10% v/v CCK-8 (Dojindo) was added. The plates were then incubated for 1-2 h before measuring absorbance at […]
(§5) The relative % cell viability was calculated as 100 times the ratio of Abs450 (RSSH donor + DOX-exposed) to Abs450 (vehicle, non-DOX-exposed). Each treatment condition was performed in 6 technical replicates per biological replicate, and the experiment was independently repeated three times (n = 3 biological replicates). Data are presented as mean ± SEM. […]

Data set [2] relates to MCF-7 cells. Described as above. The following applies: 4 h pretreatment, then 24 h co-treatment with DOX 15 μM. As for the experimental part: as §1, §2, §3, §4, §5
In data set [3] the test system is HepG2 cells. The data set is described as above. The following applies: 4 h pretreatment, then 24 h co-treatment with DOX 5 μM. As for the experimental part: as §1, §2, §3, §4, §5
Data set [4] has as its system H9c2 cells. Description: Mitochondrial membrane potential (TMRM) under DOX. The following applies: donor 25 μM, 4 h pretreatment, DOX 5 μM 24 h. As for the experimental part:
(§6) Figure 6. a) Basal sulfane sulfur (SS) levels in H9c2 cardiomyocyte, MDA-MB-468, MCF-7, and HepG2 cell lines as detected by SSP4 fluorescence. b) Representative images and c) basal levels of mitochondrial membrane potential (MMP) in H9c2 and cancer cells (MDA-MB-468, MCF-7, and HepG2). d) Impact of APT-1 (25 μM) or APT-1-TPP (25 μM) on MMP in DOX (5 μM)-treated (d) H9c2 and e) HepG2 cells. Impact of APT-1 (25 μM) and APT-1-TPP (25 μM) on ATP levels in DOX (5 μM)-treated f) H9c2 and g) HepG2 cells. Results are expressed as mean ± SEM, n = 3–6; *P < 0.05, **P < 0.01, ***P < 0.001, ****P < 0.0001. Significances in (a) and (c) are presented with respect to H9c2 cells.
(§7) We then examined how RSSH donors influence MMP during DOX exposure. As expected, DOX alone induced mitochondrial depolarization in H9c2 cells, reducing MMP to ca. 50% of control (Figure 6d). […] To complement these observations, we quantified intracellular ATP levels as a functional readout of mitochondrial activity. […]
(§8) Mitochondrial Membrane Potential Measurements
(§9) Mitochondrial membrane potential was measured using Image-iT™ TMRM Reagent (Cat#I34361, Invitrogen, USA) according to the manufacturer's protocols. […]
(§10) The cells were incubated for an additional 24 h. After completion of treatment, cells were washed with a warm clear DMEM medium (with 10% FBS) and incubated in culture media containing TMRM (working solution 100 nM) for 30 min at 37 °C. Cells were then washed with a warm clear FBS-free DMEM medium (3 times) before imaging. Images were obtained with Zeiss LSM 800 with AiryScan Confocal (λex = 548 nm, λem = 573 nm). During each experiment, 6 field images were obtained for each experimental group. Images were analyzed using Image J software, and all cells in each image were selected for fluorescence intensity measurement (cell-free space was also measured as blank). H9c2 signal intensity was set to 100% and signal intensity for all the other cell lines was shown as a percentage of that of H9c2.
(§11) The experiments were independently repeated three times (n = 3 biological replicates). Data are […]
(§12) Figure S24. Representative TMRM images for mitochondrial membrane potential (MMP) in H9c2 and HepG2 cells with APT-1 and APT-1-TPP treatment under DOX stress. Ctl = vehicle (medium with 0.01% […]
(§13) (1 picture or pasted object on this page, not shown here)

Data set [5] concerns HepG2 cells. Description: Mitochondrial membrane potential (TMRM) under DOX. The following applies: donor 25 μM, 4 h pretreatment, DOX 5 μM 24 h. As for the experimental part: as §6, §7, §8, §9, §10, §11, §12, §13

With `COC(=O)C(NC(C)=O)C(C)(C)SSC(=O)N(C)CCOC(C)=O` (centres unmarked) [APT-1], the “effect on DOX cytotoxicity” value in data set [1] is “did not provide cytoprotection”; in data set [2], “did not blunt DOX cytotoxicity”; in data set [3], “no protective effect”. In data set [4], the “effect on DOX-induced loss of MMP” value is given as “preserved MMP”. In addition, in data set [5], the “effect on DOX-induced mitochondrial depolarization” value is “neither donor prevented DOX-induced mitochondrial depolarization”.

`CC(=O)NC(C(=O)N(C)CCC[P+](c1ccccc1)(c1ccccc1)c1ccccc1)C(C)(C)SSC(=O)N(C)CCOC(C)=O` (centres unmarked) [APT-1-TPP]: in data set [1], the “concentration that modestly enhanced DOX's anticancer activity” value was at least 100 µM. Moreover, the “effect on DOX cytotoxicity” value in data set [1] was “no protective effect”; in data set [2] it was “synergistically enhanced its activity”; in data set [3], “potentiated DOX cytotoxicity in a dose-dependent manner”. In addition, the “effect on DOX-induced loss of MMP” value in data set [4] was “conferred protection, though to a slightly lesser extent”. In addition, in data set [5], the “effect on DOX-induced mitochondrial depolarization” value is reported as “further exacerbated MMP loss”.

The record behind these values is article PMC13224100, “Esterase-Responsive Mitochondria-Targeted Hydropersulfide Donors Mitigate Doxorubicin Cardiotoxicity While Preserving Anticancer Activity” (Angewandte Chemie (International ed. in English), 2025).
